Results published in paper PMC10851555, “Safinamide, an inhibitor of monoamine oxidase, modulates the magnitude, gating, and hysteresis of sodium ion current” (BMC Pharmacology & Toxicology, 2024).

Experiments:
[1] = system: voltage-gated sodium ion (NaV) channels in pituitary GH3 cells; test: Whole-cell INa(T) decay during a 1-s, 20-Hz train of depolarizing pulses in GH3 cells; type: cell-based, rat; details: control 65 ± 4 ms, n = 7
Description: Shortly before experiments, GH3 was carefully suspended in normal Tyrode’s solution at room temperature (20–25 °C). A few drops of the suspension containing cell clumps were immediately added to a custom-built chamber on the stage of an inverted Diaphot-200 microscope (Nikon, Tokyo, Japan). Pipettes were pulled from Kimax-51 soft-glass capillaries (#34500-99; Kimble, Vineland, NJ) by using a Narishige PP-830 Vertical Puller (Tokyo, Japan), and their tips were fire-polished using a microforge (MF-83, Narishige). During the measurements, an electrode with a tip resistance of 2–4 MΩ, which was tightly inserted into a holder, was maneuvered using a WR-98 micromanipulator (Narishige). Patch-clamp experiments were performed in the voltage-clamp mode with either cell-attached or whole-cell configuration (rupturing of the membrane patch after GΩ formation) by using a RK-400 Patch-Clamp Amplifier (Bio-Logic, Claix, France) connected to a laptop. Shortly before GΩ formation, potential correction was performed for a liquid junction potential, which developed at the electrode’s tip because of the difference in the compositions of the internal and bath solutions.
SAF is efficacious as an add-on therapy following subthalamic nucleus deep brain stimulation in patients with Parkinson’s disease. Therefore, we investigated whether SAF could modify the inactivation of currents induced by a train of depolarizing stimuli. The test cells were maintained at −80 mV and subjected to repetitive depolarization to −10 mV (40 ms per pulse; rate of 20 Hz; duration of 1 s). Similar to the findings of relevant studies, during the control period (the absence of SAF), INa(T) inactivation was noticed to be induced by 1 s of repetitive depolarization stimuli (−80 to −10 mV) with a decaying time constant of 65 ± 4 ms (n = 7; Fig. 6A, 6B and 6C). […] In the presence of 3 and 10 μM SAF, the exponential time course of INa(T) induced by the same train of depolarizing pulses was longer at 107 ± 5 ms (n = 7, P < 0.05) and 124 ± 6 ms (n = 7, P < 0.05), respectively. Furthermore, as MGB and ranolazine have been reported to suppress the amplitude of INa effectively, we added ranolazine (Ran; 10 μM) and mirogabalin (MGB; 10 μM) separately in the presence of 10 μM SAF. […] The application of Ran (10 μM) or MGB (10 μM) alone decreased the decaying time constant of INa(T) during the same train of depolarizing pulses to 39 ± 4 ms (n = 7, P < 0.05) or 42 ± 4 ms (n = 7, P < 0.05), respectively, from a control value of 66 ± 5 ms (n = 7). Thus, in addition to increasing the magnitude of INa(T), SAF prominently affects the decaying of INa(T) subjected to a 1-s train of depolarizing pulses.
Fig. 6 Effect of SAF on INa(T) decay induced by a train of depolarizing pulses in GH3 cells. The train of pulses comprised twenty 40-ms pulses (voltage increased to −10 mV) with 10-ms intervals at −80 mV for a total duration of 1 s. (A) Current traces during the control period (a, blue) and during exposure to 10 μM SAF (b, red). The voltage-clamp protocol used is indicated atop the current traces. In panel A, the third graphs (blue and red) from the top are the expanded forms of the second graphs (brown dashed boxes). (B) The relative amplitude of INa(T) versus pulse train duration in the absence (blue open circles) and presence (red open squares) of 10 μM SAF (mean ± standard error of the mean; n = 7 for each point). The INa(T) amplitudes were normalized by dividing the current amplitudes at the end of each pulse-train stimulation by those obtained at the beginning of the pulse train stimulation. The gray continuous lines on which the data points are overlaid are reliably fitted with a single exponential.

[2] = system: voltage-gated sodium ion (NaV) channels in pituitary GH3 cells; test: Persistent INa [INa(P)] and Hys(V) induced by upright isosceles-triangular Vramp (3.2 s) in GH3 cells; type: cell-based, rat; details: n = 7; for INa(P) amplitude at −10 mV [high-threshold Hys(V) loop]: control 175 ± 14 pA; for INa(P) amplitude at −80 mV [low-threshold Hys(V) loop]: control 288 ± 25 pA
Text: We further investigated whether SAF exposure modulated the magnitude and Hys(V) behavior of INa(P) induced by an isosceles-triangular Vramp in GH3 cells. To record whole-cell currents, the test cells were maintained at −80 mV and subjected to an upright isosceles-triangular Vramp ascending from –110 and +50 mV over 3.2 s (digital-to-analog conversion; Fig. 8A). […] For example, when test cells were subjected to an isosceles-triangular Vramp over 3.2 s (ramp speed of 0.1 mV/ms), the INa(P) amplitudes measured at −10 mV (high threshold) and −80 mV (low threshold) during the control period were 175 ± 14 pA (n = 7) and 288 ± 25 pA (n = 7), respectively. After the addition of 3 and 10 μM SAF, the INa(P) amplitude at −10 mV [high-threshold Hys(V) loop] was 194 ± 17 pA (n = 7, P < 0.05) and 219 ± 18 pA (n = 7, P < 0.05), respectively; the corresponding amplitudes at −80 mV [low-threshold Hys(V) loop] were 348 ± 29 pA (n = 7, P < 0.05) and 389 ± 31 pA (n = 7, P < 0.05), respectively. […] These findings indicate the unique Hys(V) behavior of INa(P) induced by an isosceles-triangular Vramp in GH3 cells; SAF exposure may increase the strength of Hys(V).
Fig. 8 Stimulatory effects of SAF on the voltage-dependent hysteresis [Hys(V)] behavior of persistent INa [INa(P)] induced by upright isosceles-triangular Vramp. Vramp was supplied for 3.2 s (ramp speed of 0.1 mV/ms; digital-to-analog conversion) to induce Hys(V) behavior in GH3 cells. (A) Current traces during the control period (left) and during the exposure to 10 μM SAF (right). The blue and red traces shown in each panel represent currents induced by the upsloping (ascending) and downsloping (descending) limbs of the upright isosceles-triangular Vramp, respectively. The inset indicates the voltage protocol. The dashed arrows indicate the direction of the current trajectory over time. (B) Summary graphs illustrating the effects of SAF (3 and 10 μM), SAF plus MGB, and SAF plus Ran on the amplitude of Vramp-induced INa(P) measured at −10 mV (ascending limb; left side) and −80 mV (descending limb; right side).

Compound: C[C@H](NCc1ccc(OCc2cccc(F)c2)cc1)C(N)=O [SAF, (S)-2-((4-((3-fluorobenzyl)oxy)benzyl)amino)propanamide]
- decaying time constant of INa(T) during train of depolarizing pulses ([1]; 3 μM SAF): 107 ± 5 ms
- decaying time constant of INa(T) during train of depolarizing pulses ([1]; 10 μM SAF): 124 ± 6 ms
- INa(P) amplitude at −10 mV [high-threshold Hys(V) loop] ([2]; 3 μM SAF): 194 ± 17 pA
- INa(P) amplitude at −80 mV [low-threshold Hys(V) loop] ([2]; 3 μM SAF): 348 ± 29 pA
- INa(P) amplitude at −10 mV [high-threshold Hys(V) loop] ([2]; 10 μM SAF): 219 ± 18 pA
- INa(P) amplitude at −80 mV [low-threshold Hys(V) loop] ([2]; 10 μM SAF): 389 ± 31 pA
